Laboratory results as given in PubChem BioAssay (NCI).
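All cell lines were grown in 96-well plates and treated with compound for 48 hours. The concentration for 50% growth inhibition is given as GI50. TGI marks complete inhibition of growth.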

Legend:
Test in all cases: inhibition of tumour cell growth, NCI panel, 48 h
[1] = test system: A498 renal
[2] = test system: A549 NSCLC
[3] = test system: ACHN renal
[4] = test system: BT-549 breast
[5] = test system: EKVX NSCLC
[6] = test system: HCT-116 colon
[7] = test system: IGROV1 ovarian
[8] = test system: MDA-MB-435
[9] = test system: SF-295 CNS
[10] = test system: UO-31 renal

| SMILES | GI50 [1] [µM] | TGI [1] [µM] | GI50 [2] [µM] | TGI [2] [µM] | GI50 [3] [µM] | TGI [3] [µM] | GI50 [4] [µM] | TGI [4] [µM] | GI50 [5] [µM] | TGI [5] [µM] | GI50 [6] [µM] | TGI [6] [µM] | GI50 [7] [µM] | TGI [7] [µM] | GI50 [8] [µM] | TGI [8] [µM] | GI50 [9] [µM] | TGI [9] [µM] | GI50 [10] [µM] | TGI [10] [µM] |
| --- | --- | --- | --- | --- | --- | --- | --- | --- | --- | --- | --- | --- | --- | --- | --- | --- | --- | --- | --- | --- |
| O=S(=O)(Nc1ccc(Cl)c(C(F)(F)F)c1)c1ccc(-c2cnc(C3CC3)o2)cc1 | 0.0814 | 1.23 | 0.577 | > 35.6 | 0.789 | 6.88 | 0.128 | 4.79 | 1.34 | 9.29 | 0.187 | 4.14 | 0.507 | 5.96 | 0.0658 | 0.606 | 0.131 | 2.12 | 0.871 | 6.25 |
| CC1=COC2=C(C)C(=O)C(=O)c3c(C)ccc1c32 | – | 41.8 | – | 15.2 | – | 29.5 | – | 38.3 | – | 24.7 | – | 20.6 | – | 21.6 | – | 3.86 | – | 18.8 | – | 40.6 |
| O=C1Nc2ccccc2SC1C1SC(=S)N(Cc2ccccc2)C1=O (stereo not given) | 14.6 | 32.9 | 16 | > 51.4 | 7.41 | 20.3 | 5.71 | 22.3 | 21.7 | 53.2 | 2.45 | 9.28 | 3.37 | 16.5 | 3.04 | 15.5 | 10.2 | 40.2 | 5.63 | 22.8 |
| N#Cc1ccc(-n2cnc(NC(=O)[C@H]3CCN(C#N)C3)c2)cc1 | 2.03 | 4.76 | 3.15 | > 100 | 2.55 | > 100 | 0.248 | 2.47 | 2.38 | 10.1 | 1.1 | 9.27 | 2.01 | > 100 | 0.234 | 18.4 | 2.79 | > 66.3 | 0.546 | 4 |
| N#Cc1c(NC(=O)CCC(=O)O)ccc2ccccc12 | – | > 100 | – | > 100 | – | > 100 | – | > 100 | – | > 100 | – | > 100 | – | > 100 | – | > 100 | – | > 100 | – | > 100 |
